According to ChEMBL document CHEMBL3774317, “Design and synthesis of novel tamoxifen analogues that avoid CYP2D6 metabolism” (Eur J Med Chem, 2016):

Experiments:
Type in all cases: functional
[1] = Cytotoxicity against human RPMI8226 cells assessed as growth inhibition after 48 hrs by SRB assay; settings: RPMI-8226, 48 h
A549 = assay: Cytotoxicity against human A549 cells assessed as growth inhibition after 48 hrs by SRB assay; settings: A549, 48 h
EKVX = assay: Cytotoxicity against human EKVX cells assessed as growth inhibition after 48 hrs by SRB assay
[2] = Cytotoxicity against human HOP62 cells assessed as growth inhibition after 48 hrs by SRB assay; settings: HOP-62, 48 h
NCI-H226 = assay: Cytotoxicity against human NCI-H226 cells assessed as growth inhibition after 48 hrs by SRB assay; settings: NCI-H226, 48 h
NCI-H460 = assay: Cytotoxicity against human NCI-H460 cells assessed as growth inhibition after 48 hrs by SRB assay; settings: NCI-H460, 48 h; for CC50: read-out: LC50 (the source's name)
[3] = Cytotoxicity against human HCC2998 cells assessed as growth inhibition after 48 hrs by SRB assay; settings: HCC 2998, 48 h; for CC50: read-out: LC50 (the source's name)
[4] = Cytotoxicity against human HCT116 cells assessed as growth inhibition after 48 hrs by SRB assay; settings: HCT-116, 48 h
HT-29 = assay: Cytotoxicity against human HT-29 cells assessed as growth inhibition after 48 hrs by SRB assay; settings: HT-29, 48 h; for CC50: read-out: LC50 (the source's name)
KM12 = assay: Cytotoxicity against human KM12 cells assessed as growth inhibition after 48 hrs by SRB assay; settings: KM12, 48 h
[5] = Cytotoxicity against human SW620 cells assessed as growth inhibition after 48 hrs by SRB assay; settings: SW-620, 48 h
[6] = Cytotoxicity against human SF268 cells assessed as growth inhibition after 48 hrs by SRB assay; settings: SF-268, 48 h
[7] = Cytotoxicity against human SF295 cells assessed as growth inhibition after 48 hrs by SRB assay; settings: SF-295, 48 h
[8] = Cytotoxicity against human LOXIMVI cells assessed as growth inhibition after 48 hrs by SRB assay; settings: LOX IMVI
M14 = assay: Cytotoxicity against human M14 cells assessed as growth inhibition after 48 hrs by SRB assay; settings: M14, 48 h; for CC50: read-out: LC50 (the source's name)
MDA-MB-435 = assay: Cytotoxicity against human MDA-MB-435 cells assessed as growth inhibition after 48 hrs by SRB assay; settings: MDA-MB-435, 48 h; for CC50: read-out: LC50 (the source's name)
SK-MEL-5 = assay: Cytotoxicity against human SK-MEL-5 cells assessed as growth inhibition after 48 hrs by SRB assay; settings: SK-MEL-5, 48 h; for CC50: read-out: LC50 (the source's name)
[9] = Cytotoxicity against human UACC257 cells assessed as growth inhibition after 48 hrs by SRB assay; settings: UACC-257, 48 h
[10] = Cytotoxicity against human OVCAR3 cells assessed as growth inhibition after 48 hrs by SRB assay; settings: OVCAR-3, 48 h
[11] = Cytotoxicity against human OVCAR5 cells assessed as growth inhibition after 48 hrs by SRB assay; settings: OVCAR-5, 48 h
[12] = Cytotoxicity against human OVCAR8 cells assessed as growth inhibition after 48 hrs by SRB assay; settings: OVCAR-8, 48 h; for CC50: read-out: LC50 (the source's name)
[13] = Cytotoxicity against human NCI-ADR-RES cells assessed as growth inhibition after 48 hrs by SRB assay; settings: for CC50: read-out: LC50 (the source's name)
A498 = assay: Cytotoxicity against human A498 cells assessed as growth inhibition after 48 hrs by SRB assay; settings: A498, 48 h
[14] = Cytotoxicity against human RXF393 cells assessed as growth inhibition after 48 hrs by SRB assay; settings: RXF 393, 48 h; for CC50: read-out: LC50 (the source's name)
SN12C = assay: Cytotoxicity against human SN12C cells assessed as growth inhibition after 48 hrs by SRB assay
[15] = Cytotoxicity against human TK10 cells assessed as growth inhibition after 48 hrs by SRB assay; settings: TK-10, 48 h
[16] = Cytotoxicity against human UO31 cells assessed as growth inhibition after 48 hrs by SRB assay; settings: UO-31, 48 h; for CC50: read-out: LC50 (the source's name)
[17] = Cytotoxicity against human PC3 cells assessed as growth inhibition after 48 hrs by SRB assay; settings: PC-3, 48 h
MDA-MB-231 = assay: Cytotoxicity against human MDA-MB-231 cells assessed as growth inhibition after 48 hrs by SRB assay; settings: MDA-MB-231, 48 h
[18] = Cytotoxicity against human Hs 578T cells assessed as growth inhibition after 48 hrs by SRB assay; settings: for CC50: read-out: LC50 (the source's name)
[19] = Cytotoxicity against human BT549 cells assessed as growth inhibition after 48 hrs by SRB assay; settings: BT-549, 48 h; for CC50: read-out: LC50 (the source's name)
MDA-MB-468 = assay: Cytotoxicity against human MDA-MB-468 cells assessed as growth inhibition after 48 hrs by SRB assay; settings: MDA-MB-468, 48 h; for CC50: read-out: LC50 (the source's name)

## C/C(=C(/c1ccc(O)cc1)c1ccc(OCCN2CCCC2)cc1)c1ccccc1
[1]
  GI50: 2.4 µM
  LC50: 65 µM
  TGI: 6.72 µM
A549
  GI50: 3.53 µM
  LC50: 35 µM
  TGI: 11 µM
EKVX
  GI50: 2.46 µM
  LC50: 33.9 µM
  TGI: 11.5 µM
[2]
  GI50: 2.1 µM
  LC50 (concentration giving 50% net cell kill): 9.84 µM
  TGI: 4.54 µM
NCI-H226
  GI50: 11.3 µM
  LC50 (50% lethal concentration): 79 µM
  TGI: 29.8 µM
NCI-H460
  GI50: 2.36 µM
  TGI: 5.38 µM
  CC50: 16.9 µM
[3]
  GI50: 2.34 µM
  TGI: 6.18 µM
  CC50: 28.5 µM
[4]
  GI50: 2.92 µM
  LC50: 32.6 µM
  TGI: 10.1 µM
HT-29
  GI50: 1.35 µM
  TGI: 3.2 µM
  CC50: 7.58 µM
KM12
  GI50: 3.51 µM
  LC50 (concentration giving 50% net cell kill): 41.5 µM
  TGI: 13.2 µM
[5]
  GI50: 2.28 µM
  LC50: 15.3 µM
  TGI: 5.16 µM
[6]
  GI50: 5.58 µM
  LC50: 55.2 µM
  TGI: 20.7 µM
[7]
  GI50: 1.95 µM
  LC50 (concentration killing 50% of cells): 8.99 µM
  TGI: 4.19 µM
[8]
  GI50: 1.72 µM
  LC50 (concentration killing 50% of cells): 6.29 µM
  TGI: 3.29 µM
M14
  GI50: 1.88 µM
  TGI: 4.08 µM
  CC50: 8.86 µM
MDA-MB-435
  GI50: 1.88 µM
  TGI: 4.4 µM
  CC50: 10.8 µM
SK-MEL-5
  GI50: 1.72 µM
  TGI: 3.1 µM
  CC50: 5.59 µM
[9]
  GI50: 2.03 µM
  LC50: 7.61 µM
  TGI: 3.93 µM
[10]
  GI50: 5.66 µM
  LC50: 42.5 µM
  TGI: 18.1 µM
[11]
  GI50: 7.99 µM
  LC50 (concentration killing 50% of cells): 54.2 µM
  TGI: 22.5 µM
[12]
  GI50: 5.73 µM
  TGI: 23.1 µM
  CC50: 77.2 µM
[13]
  GI50: 4.17 µM
  TGI: 18.3 µM
  CC50: 61.5 µM
A498
  GI50: 1.67 µM
  LC50: 38.5 µM
  TGI: 8.49 µM
[14]
  GI50: 2 µM
  TGI: 5.05 µM
  CC50: 19.8 µM
SN12C
  GI50: 9.17 µM
  LC50 (concentration killing 50% of cells): 68.7 µM
  TGI: 25.7 µM
[15]
  GI50: 4.61 µM
  LC50: 40.7 µM
  TGI: 16.4 µM
[16]
  GI50: 1.87 µM
  TGI: 5.72 µM
  CC50: 23.7 µM
[17]
  GI50: 4.28 µM
  LC50: 40.1 µM
  TGI: 14.7 µM
MDA-MB-231
  GI50: 3.51 µM
  LC50: 45.7 µM
  TGI: 8.4 µM
[18]
  GI50: 2.96 µM
  TGI: 9.9 µM
  CC50: > 100 µM
[19]
  GI50: 4.2 µM
  TGI: 15.7 µM
  CC50: 39.6 µM
MDA-MB-468
  GI50: 1.84 µM
  TGI: 4.47 µM
  CC50: 13 µM

## CCCCCCCCCC(=O)Oc1ccc(/C(=C(/C)c2ccccc2)c2ccc(OCCN3CCCC3)cc2)cc1
[1]
  GI50: 9.13 µM
  LC50: 48.5 µM
  TGI: 21 µM
A549
  GI50: 9.35 µM
  LC50: 33.4 µM
  TGI: 17.7 µM
EKVX
  GI50: 6.92 µM
  LC50: 26.6 µM
  TGI: 13.6 µM
[2]
  GI50: 8.75 µM
  LC50 (concentration giving 50% net cell kill): 34.1 µM
  TGI: 17.3 µM
NCI-H226
  GI50: 9.42 µM
  LC50 (50% lethal concentration): 36.4 µM
  TGI: 18.5 µM
NCI-H460
  GI50: 8.46 µM
  TGI: 15.9 µM
  CC50: 29.9 µM
[3]
  GI50: 8.66 µM
  TGI: 17.2 µM
  CC50: 34.3 µM
[4]
  GI50: 8.01 µM
  LC50: 30.6 µM
  TGI: 15.7 µM
HT-29
  TGI: 12.3 µM
  CC50: 27 µM
KM12
  GI50: 8.79 µM
  LC50 (concentration giving 50% net cell kill): 31.7 µM
  TGI: 16.7 µM
[5]
  GI50: 8.57 µM
  LC50: 28.5 µM
  TGI: 15.6 µM
[6]
  GI50: 8.16 µM
  LC50: 36.3 µM
  TGI: 17.2 µM
[7]
  GI50: 7.93 µM
  LC50 (concentration killing 50% of cells): 28.6 µM
  TGI: 15.1 µM
[8]
  GI50: 8.02 µM
  LC50 (concentration killing 50% of cells): 27.2 µM
  TGI: 14.8 µM
M14
  TGI: 16.5 µM
  CC50: 32.8 µM
MDA-MB-435
  GI50: 7.47 µM
  TGI: 14.1 µM
  CC50: 26.5 µM
SK-MEL-5
  GI50: 8.13 µM
  TGI: 14.9 µM
  CC50: 27.3 µM
[9]
  GI50: 9.23 µM
  LC50: 30.6 µM
  TGI: 16.8 µM
[10]
  GI50: 8.18 µM
  LC50: 31.6 µM
  TGI: 16.1 µM
[11]
  GI50: 8.56 µM
  LC50 (concentration killing 50% of cells): 31.8 µM
  TGI: 16.5 µM
[12]
  GI50: 9.78 µM
  TGI: 20.8 µM
  CC50: 44.2 µM
[13]
  GI50: 8.03 µM
  TGI: 16.8 µM
  CC50: 35.4 µM
A498
  LC50: 29.4 µM
  TGI: 13.5 µM
[14]
  GI50: 6.95 µM
  TGI: 14.1 µM
  CC50: 28.8 µM
SN12C
  GI50: 9.15 µM
  LC50 (concentration killing 50% of cells): 35.1 µM
  TGI: 17.9 µM
[15]
  GI50: 8.86 µM
  LC50: 31.3 µM
  TGI: 16.7 µM
[16]
  GI50: 6.72 µM
  TGI: 14.2 µM
  CC50: 29.8 µM
[17]
  GI50: 8.28 µM
  LC50: 30 µM
  TGI: 15.7 µM
MDA-MB-231
  GI50: 1.02 µM
  LC50: 39.9 µM
  TGI: 20.2 µM
[18]
  GI50: 9.55 µM
  TGI: 32.2 µM
  CC50: > 50 µM
[19]
  GI50: 8.22 µM
  TGI: 16.8 µM
  CC50: 34.5 µM
MDA-MB-468
  GI50: 7.26 µM
  TGI: 14.7 µM
  CC50: 29.7 µM
